The record followed here is paper PMC8286840, “Identifying SARS-CoV-2 antiviral compounds by screening for small molecule inhibitors of Nsp3 papain-like protease” (Biochemical Journal, 2021).

Structures can show the parent of a compound that is named as a salt. Where two headings read alike, the source gives them in different places.

For assay [1], the target named is T1, SARS-CoV-2 PLpro (nsp3 1564–1878) (Severe acute respiratory syndrome coronavirus 2, UniProt P0DTD1). Put plainly: biochemical. Also noted: FRET-quenched peptide (Pro3) cleavage by PLpro, 10 min pre-incubation, slope over 20 min, normalised to no-compound control. The settings on record: low concentration screen, read-out: % of control remaining.
The target in assay [2] is T1, SARS-CoV-2 PLpro (nsp3 1564–1878). Put plainly: biochemical. Also noted: FRET-quenched peptide (Pro3) cleavage by PLpro, 10 min pre-incubation, slope over 20 min, normalised to no-compound control. The settings on record: high concentration screen, read-out: % of control remaining.

In the case of `Cc1nc(C(=O)NCC(=O)O)c(O)c2ccc(Oc3ccccc3)cc12` [FG-4592], in assay [1] (Well no.=4995), the remaining activity at 1.25 µM was 102%. In assay [2] (Well no.=4995), the remaining activity at 3.75 µM was found to be 105%.
With `COc1ccc(/C=C/C(=O)c2c(O)cc(OC)cc2OC)cc1` [Flavokawain A], the remaining activity at 1.25 µM in assay [1] (Well no.=3607) stood at 104%. Besides, the remaining activity at 3.75 µM in assay [2] (Well no.=3607) was 105%.
For `O=C(O[C@@H]1C[C@@H]2C[C@H]3C[C@H](C1)N2CC3=O)c1c[nH]c2ccccc12` [Dolasetron (Mesylate hydrate)], the remaining activity at 1.25 µM in assay [1] (Well no.=7381) was 108%. In assay [2] (Well no.=7381), the remaining activity at 3.75 µM was determined as 98%.
For the compound `CC(F)(F)CN1CCOc2c(nn(-c3ccccc3Cl)c2-c2ccc(Cl)cc2)C1=O` [PF-514273], in assay [1] (Well no.=5700), the remaining activity at 1.25 µM was 97.7%. Besides, in assay [2] (Well no.=5700), the remaining activity at 3.75 µM is 96.2%.
As to `COc1cc2c(CCNC(C)=O)c[nH]c2cc1Cl` [6-Chloromelatonin], the remaining activity at 1.25 µM in assay [1] (Well no.=89) amounted to 98.5%. In addition, the remaining activity at 3.75 µM in assay [2] (Well no.=89) is 101%.
For the compound `O=C(O)c1cc(=O)c2c(Cl)cc(Cl)cc2[nH]1` [5,7-Dichlorokynurenic acid], the remaining activity at 1.25 µM in assay [1] (Well no.=546) came out at 95.2%. Also, the remaining activity at 3.75 µM in assay [2] (Well no.=546) worked out at 97.5%.
For the compound `COc1ccc(Cl)cc1C(=O)NCCc1ccc(S(=O)(=O)NC(=O)NC2CCCCC2)cc1` [Glibenclamide], the remaining activity at 1.25 µM in assay [1] (Well no.=475) was 101%. Further, the remaining activity at 3.75 µM in assay [2] (Well no.=475) was found to be 102%.
As for `CN(C)CCOC(C)(c1ccccc1)c1ccc(Cl)cc1` (stereo not shown) [Chlorphenoxamine], the remaining activity at 1.25 µM in assay [1] (Well no.=6219) was 102%. Moreover, in assay [2] (Well no.=6219), the remaining activity at 3.75 µM was found to be 100%.
Turning to `CN1C(=O)NC(Cc2c[nH]c3c(Cl)cccc23)C1=O` (racemic) [Necrostatin 2 (racemate)], the remaining activity at 1.25 µM in assay [1] (Well no.=6828) worked out at 99.1%. The remaining activity at 3.75 µM in assay [2] (Well no.=6828) was determined as 95%.
For the compound `COc1cc2c(cc1OC(C)C)[C@H](c1ccc(Cl)cc1)N(c1ccc(N(C)C[C@H]3CC[C@H](N4CCN(C)C(=O)C4)CC3)cc1)C(=O)C2` [NVP-CGM097], the remaining activity at 1.25 µM in assay [1] (Well no.=6974) is 95.7%. In addition, in assay [2] (Well no.=6974), the remaining activity at 3.75 µM was 94.5%.
In the case of `CC(=O)CC(=O)CCC(=O)O` [4,6-Dioxoheptanoic acid], in assay [1] (Well no.=7261), the remaining activity at 1.25 µM was 102%. Also, the remaining activity at 3.75 µM in assay [2] (Well no.=7261) is 102%.
For the compound `CN1CCC(=C2c3ccccc3CCc3cccnc32)CC1` [Azatadine (dimaleate)], the remaining activity at 1.25 µM in assay [1] (Well no.=7617) came to 103%. Also, in assay [2] (Well no.=7617), the remaining activity at 3.75 µM stood at 105%.
For the compound `CC(C)CC(N)=O` [Isovaleramide], in assay [1] (Well no.=8346), the remaining activity at 1.25 µM is 89.1%. Further, the remaining activity at 3.75 µM in assay [2] (Well no.=8346) turned out to be 81.6%.
`NCCCS(=O)(=O)O` [3-Amino-1-propanesulfonic acid sodium]: in assay [1] (Well no.=301), the remaining activity at 1.25 µM came to 98%. The remaining activity at 3.75 µM in assay [2] (Well no.=301) amounted to 98.1%.
On to `O=C(O)c1cc(N(Cc2ccccc2O)Cc2cc(O)ccc2O)ccc1O` [Lavendustin A], for which, in assay [1] (Well no.=3837), the remaining activity at 1.25 µM turned out to be 90.9%. In addition, in assay [2] (Well no.=3837), the remaining activity at 3.75 µM is 94.6%.
Take `C[C@H](CS)C(=O)N1CCC[C@H]1C(=O)O` [Captopril]: the remaining activity at 1.25 µM in assay [1] (Well no.=318) worked out at 93.1%; in assay [1] (Well no.=1915), 97.2%; in assay [1] (Well no.=4135) it was 101%; in assay [1] (Well no.=7412) it was 105%. The remaining activity at 3.75 µM in assay [2] (Well no.=318) is 97%; in assay [2] (Well no.=1915) it was 100%; in assay [2] (Well no.=4135) it was 98%; in assay [2] (Well no.=7412), 106%.
Consider `CN1CCC(S(=O)(=O)c2c(Cl)ccc(NC(=O)Nc3cccc(F)c3Cl)c2O)CC1` [CXCR2-IN-1], for which the remaining activity at 1.25 µM in assay [1] (Well no.=8705) came out at 100%. In assay [2] (Well no.=8705), the remaining activity at 3.75 µM came to 98.8%.
With `O=P1(NCCCl)OCCCN1CCCl` (stereo not shown) [Ifosfamide], the remaining activity at 1.25 µM in assay [1] (Well no.=2220) is 97.2%. Besides, the remaining activity at 3.75 µM in assay [2] (Well no.=2220) came out at 98.6%.
For `CC(C)[C@H](CO)Nc1nc(Nc2cc(N)cc(Cl)c2)c2ncn(C(C)C)c2n1` [Aminopurvalanol A], the remaining activity at 1.25 µM in assay [1] (Well no.=2322) is 97.1%. Besides, the remaining activity at 3.75 µM in assay [2] (Well no.=2322) was determined as 97.4%.
In the case of `C/C(=C\c1csc(C)n1)[C@@H]1C[C@@H]2O[C@]2(C)CCC[C@H](C)[C@H](O)[C@@H](C)C(=O)C(C)(C)[C@@H](O)CC(=O)N1` [Ixabepilone], the remaining activity at 1.25 µM in assay [1] (Well no.=6934) amounted to 108%. Besides, the remaining activity at 3.75 µM in assay [2] (Well no.=6934) amounted to 107%.
Regarding `CC(=O)Nc1nc2c(Oc3cc(-c4ccc(C(F)(F)F)cc4)ncn3)cccc2s1` [AMG-517], the remaining activity at 1.25 µM in assay [1] (Well no.=5176) came to 102%. The remaining activity at 3.75 µM in assay [2] (Well no.=5176) came out at 99.6%.
Take `O=S(=O)(NCCNC/C=C/c1ccc(Br)cc1)c1cccc2cnccc12` [H-89, Dihydrochloride]: in assay [1] (Well no.=2610), the remaining activity at 1.25 µM was 88.8%. Further, the remaining activity at 3.75 µM in assay [2] (Well no.=2610) is 86.3%.
Turning to `NC(CCCCCP(=O)(O)O)C(=O)O` (racemic), the remaining activity at 1.25 µM in assay [1] (Well no.=17) came to 100%. For the same compound, in assay [2] (Well no.=17), the remaining activity at 3.75 µM came to 97.5%.
In the case of `O=C(Nc1cc(C(F)(F)F)cc(C(F)(F)F)c1)c1cc(Cl)ccc1O` [IKK-2 Inhibitor V], the remaining activity at 1.25 µM in assay [1] (Well no.=2435) was 99.8%. For the same compound, the remaining activity at 3.75 µM in assay [2] (Well no.=2435) was 102%.
In the case of `CCCCc1oc2ccccc2c1C(=O)c1cc(I)c(OCCN(CC)CC)c(I)c1` [Amiodarone hydrochloride], in assay [1] (Well no.=198), the remaining activity at 1.25 µM stood at 97%. Besides, the remaining activity at 3.75 µM in assay [2] (Well no.=198) was found to be 98.7%.
In the case of `Clc1cc(I)cc(Cl)c1NC1=NCCN1` [p-Iodoclonidine hydrochloride], in assay [1] (Well no.=873), the remaining activity at 1.25 µM stood at 110%. Further, the remaining activity at 3.75 µM in assay [2] (Well no.=873) is 113%.
`CCCC/C=C\CCCCCCCCC(=O)O` [10(Z)-Pentadecenoic acid]: the remaining activity at 1.25 µM in assay [1] (Well no.=4542) turned out to be 89.2%. In addition, the remaining activity at 3.75 µM in assay [2] (Well no.=4542) is 97.8%.
On to `COC(=O)CC[C@H](NC(=O)[C@H](CC(=O)OC)NC(=O)OCc1ccccc1)C(=O)N[C@H](C(=O)N[C@@H](CC(=O)OC)C(=O)CF)C(C)C` [Z-DEVD-FMK], for which the remaining activity at 1.25 µM in assay [1] (Well no.=7172) amounted to 102%; in assay [1] (Well no.=7636) it was 95.2%. Besides, the remaining activity at 3.75 µM in assay [2] (Well no.=7172) was found to be 99.7%; in assay [2] (Well no.=7636), 91.3%.
Take `O=C(O)c1cc(-c2ccc(F)cc2F)ccc1O` [Diflunisal]: in assay [1] (Well no.=1984), the remaining activity at 1.25 µM is 102%. In assay [2] (Well no.=1984), the remaining activity at 3.75 µM stood at 102%.
As for `N[C@@H](Cc1ccc(O)c(O)c1)C(=O)O` [Levodopa], in assay [1] (Well no.=2264), the remaining activity at 1.25 µM was determined as 93.8%. Further, the remaining activity at 3.75 µM in assay [2] (Well no.=2264) amounted to 95.2%.
In the case of `CC(=O)NCC(=O)N1[C@@H]2CC[C@H]1c1ccc(Nc3ncc(C(F)(F)F)c(NC4CCC4)n3)cc12` [PF-03814735], in assay [1] (Well no.=4693), the remaining activity at 1.25 µM stood at 102%. Further, in assay [2] (Well no.=4693), the remaining activity at 3.75 µM came to 105%.
